The text below walks through data of patent US7345049B2, “Phenylalanine derivatives” (Ajinomoto Co., Inc., priority 2003, dated 2008).

Data set [1] in a line: Pharmacokinetic study by intravenous administration to a rat. The format is in vivo. The following applies: plasma, 1 mg/kg; intravenous single dose, 1 mg/mL solution at 1 mL/kg, Wistar rat, active form; read-out: Total body clearance CLtot (converted). On the procedure: Pharmacokinetic Study by Intravenous Administration to a Rat
After the compounds of the present invention wherein R11 to R141 are a hydroxyl group, which were active forms, were weighed by a scale, they were adjusted by dimethylsulfoxide to become 10 mg/mL. Polyethylene glycol 400 and distilled water were added thereto to prepare 1 mg/mL of an administration solution. 1 mg/mL of the administration solution was intravenously administered as a single dose to a Wistar rat in an amount of 1 mL/kg. 1, 5, 10, 30, 60 and 180 minutes later, the drug concentration in the blood plasma obtained by blood drawing from its cervical vein over time under anesthesia was determined with LC/MS. From the obtained results, the area under the plasma concentration time curve from zero to time infinity (AUCinf (iv)) was calculated in accordance with the trapezoidal method of pharmacokinetic analysis. The total body clearance (CLtot, [L/hr/kg]) was calculated as an index of drug disappearance in the blood plasma from a dose [mg/kg] and AUC [μg×hr/mL] in accordance with the formula: CLtot=Dose÷AUCinf(iv).

For data set [2], the system named is lymphocytes in the peripheral blood. In words: Activity to elevate the number of lymphocytes in the peripheral blood in a rat. It is filed as in vivo, male Wistar rat. The following applies: oral, 30 mg/kg, 12 hours later, criterion 150% or more of vehicle group. On the procedure:
Activity to Elevate the Number of Lymphocytes in the Peripheral Blood in a Rat
The activity of the compounds of the present invention to elevate the number of lymphocytes in the rat was examined.
A dosing solution was prepared by dissolving the compounds of the present invention to dimethylsulfoxide, adding the mixed solution of polyethylene glycol 400: propylene glycol=1:1 and turning it upside and down repeatedly. The final concentration of DMSO was adjusted to become 2.5%.
The dosing solution of a test substance (3 mg/kg, 10 mg/kg or 30 mg/kg) was orally administered to a male Wistar rat (6 to 8 weeks age) in an amount of 4 mL/kg. After the settled time points after the administration, the blood was drawn from its abdominal large vein under anesthesia and stirred in a EDTA-2K coated container for blood collection. Then, the number of lymphocytes in the peripheral blood was determined by an automated comprehensive hematology analyzer (SF-3000, Sysmex). The test was executed in n=5, and the ratio (%) of the number of lymphocytes in the peripheral blood in a test-substance-administered group to that in a vehicle-treated group (a control group) was calculated while the average value of the number of lymphocytes in the peripheral blood in a control group was determined to be 100%.

Regarding `CSc1ccc2c(c1)c(=O)n(-c1ccc(C[C@H](NC(=O)c3c(Cl)cccc3Cl)C(=O)O)cc1)c(=O)n2C` [Example 37, N-(2,6-dichlorobenzoyl)-4-[1-methyl-6-(methylthio)-2,4-quinazoline-dione-3-yl]-L-phenylalanine], the clearance in data set [1] is 5.5 mL/min/kg.

Consider `Cn1c(=O)n(-c2ccc(C[C@H](NC(=O)c3c(Cl)cccc3Cl)C(=O)O)cc2)c(=O)c2ccc(N3CCCC3)cc21.O=C(O)C(F)(F)F` [Example 40, N-(2,6-dichlorobenzoyl)-4-[1-methyl-7-(pyrrolidine-1-yl)-2,4-quinazoline-dione-3-yl]-L-phenylalanine trifluoroacetate], for which the clearance in data set [1] was 3.17 mL/min/kg.

For the molecule `Cn1c(=O)n(-c2ccc(C[C@H](NC(=O)c3c(Cl)cccc3Cl)C(=O)O)cc2)c(=O)c2cc(-n3ccnc3N)ccc21` [Example 59], the clearance in data set [1] was 5.33 mL/min/kg.

With `CC(C)OC(=O)[C@H](Cc1ccc(-n2c(=O)c3cc(CO)ccc3n(C)c2=O)cc1)NC(=O)c1c(Cl)cccc1Cl` [Example 234, N-(2,6-dichlorobenzoyl)-4-[6-(hydroxymethyl)-1-methyl-2,4-dioxo-1,2,3,4-tetrahydroquinazoline-3-(2H)-yl]-L-phenylalanine isopropylester], the “Elevation of lymphocytes in the peripheral blood, pass/failure” value in data set [2] is “◯ (pass (criterion measure or more))”.
